Measured values reported in patent publication US20220249535A1, “COMPOSITIONS COMPRISING NICOTINAMIDE ADENINE DINUCLEOTIDE-RELATED COMPOUNDS AND USE THEREOF” (Rejuvenation Therapeutics, priority 2019, published 2022).

Tests used:
NAD+ levels in the blood = test: Blood NAD+ level in subjects during daily oral dosing (Example 1); type: in vivo, human
Method: Study Design • In this study, safety, pharmacokinetics, and pharmacodynamics of NAM, NA, NMN, and NR were studied. Before receiving the first oral dose of NAM, NA, NMN, and NR formulated as a dietary supplement, but after screening and informed consent, eligible subjects underwent blood and urine samplings on Day 1 to establish baseline levels of NAD+ and other compounds. Subsequently, each subject received one of the following dosages: • 1. daily doses of 1000 mg NR for 7 days: • 2. daily doses of NR 300 mg for 14 days and then added NAM 1000 mg for 7 days; • 3. daily doses of 300 mg NR for 7 days; • 4. daily doses of 1000 mg NAD+ for 7 days; • 5. daily doses of 1000 mg NAM for 14 days: • 6. daily doses of 300 mg NA for 14 days: • 7. daily doses of 1000 mg NMN for 7 days: • 8. daily doses of NAM, NA, NMN, and NR, one at a time, including 300 mg NA and 300 mg NR for 11 days followed by 300 mg NA, 300 mg NR, and 1000 mg NAM for 11 days; • 9. daily doses of 300 mg NR and 1000 mg NAM for 9 days; • 10. daily doses of NAM, NA, and NR, one at a time, including 300 mg NA and 300 mg NR for 11 days followed by 300 mg NA, 300 mg NR, and 1000 mg NAM for 11 days. • Each subject underwent serial blood and urine sampling during the daily dosing of NAM, NA, NMN, and NR, or a mixture of the foregoing.
Inclusion Criteria: • 1. Healthy male or female, age>18 years. • 2. Signed, informed consent. • 3. […] Healthy as determined by laboratory results and medical history. • 5. Agrees to maintain current level of physical activity throughout the study. • 6. Agrees to avoid study compounds for 30 days prior to enrollment and during the study 7. • 7. Agrees to avoid nutritional yeast, whey proteins, energy drinks, pomegranate, pomegranate juice, grapefruit, grapefruit juice and alcohol 7 days prior to enrollment and during study • 8. Willingness and ability to comply with scheduled visits, cell phone calls, treatment plans, laboratory tests, and completion of other study procedures as specified in the protocol.
Exclusion Criteria: • 1. Women who were pregnant, breastfeeding, or planning to became pregnant during the course of the trial. • 2. Subjects who were smokers • 3. Unstable medical conditions as determined by the Investigator • 4. Immunocompromised individuals such as subjects that had undergone organ transplantation or subjects diagnosed with human immunodeficiency virus (HIV) • 5. Clinically significant abnormal lab results at screening (e.g., AST, ALT or ALP>2×ULN, and/or bilirubin>1×ULN) • 6. Subjects who had planned surgery during the course of the trial • 7. History of or current diagnosis of any cancer (except for successfully treated basal cell carcinoma) diagnosed less than 5 years prior to screening. Subjects with cancer in full remission more than 5 years after diagnosis were acceptable • 8. History of blood/bleeding disorders • 9. Blood donation in the past 2 months • 10. Alcohol abuse (>2 standard alcoholic drinks per day) or drug abuse within the past 6 months • 11. Participation in a clinical research trial within 30 days prior to randomization • 12. Allergy or sensitivity to study supplement ingredients provided during the study • 13. Individuals who were cognitively impaired and/or who were unable to give informed consent. • 14. Any other condition which in the Investigator's opinion may adversely affect the subject's ability to complete the study or its measures or which may pose significant risk to the subject
Clinical Data and Sample Collections • 1. Height, weight, temperature, BP, heart rate, demographics • 2. Physical examination • 3. Medical history, concomitant dietary supplements (if any) and concomitant medications (if any) • 4.

[1] = murine plasma or fetal-bovine-serum containing culture medium; cited from earlier work
[2] = after NMN supplementation; through the liver and bloodstream intact into muscle; cited from earlier work
[3] = compared with NAM; cited from earlier work

Compound	NAD+ level in response to intake (NAD+ levels in the blood; 300 mg daily for 14 days)	NAD+ level in response to intake (NAD+ levels in the blood; 1000 mg daily for 7 days)	other results
NC(=O)c1ccc[n+]([C@@H]2O[C@H](CO)[C@@H](O)[C@H]2O)c1 [NR, nicotinamide riboside]	increasing NAD+ level	increasing NAD+ levels	Stability [1]: can quickly degrade into NAM
NC(=O)c1ccc[n+]([C@@H]2O[C@H](COP(=O)([O-])O)[C@@H](O)[C@H]2O)c1 [NMN, nicotinamide mononucleotide]	–	increasing NAD+ levels	Time to metabolism to NAD+ [2]: ≤ 30 min; Retention in the body [3]: retained in the body for longer than NAM
Nicotinamide adenine dinucleotide [NAD+]	–	increasing NAD+ level	NAD+ level in response to intake (NAD+ levels in the blood; 1000 mg daily for 7 days, listed as NAD): increasing NAD+ levels
NC(=O)c1cccnc1 [NAM, nicotinamide]	–	–	NAD+ level in response to intake (NAD+ levels in the blood; 1000 mg daily for 14 days): increasing NAD+ levels
O=C(O)c1cccnc1 [NA, nicotinic acid]	increasing NAD+ levels	–	–
